Paper PMC4821887, “Identification of chemicals that mimic transcriptional changes associated with autism, brain aging and neurodegeneration” (Nature Communications, 2016)

Tested on: mouse cortical cultures
Assay: RNA-seq differential expression (DESeq) against matched vehicle
Format: cell-based
Parameters: key to MeanFenamidone Bcl11b / MeanFenamidone Slc12a4 / MeanFenamidone Abca1 / MeanFenamidone Hmox1 / MeanFenamidone Il1rap / MeanFenamidone Cyba / MeanFenamidone Narf / MeanFenamidone Bnip3 / MeanFenamidone Amotl2 / MeanFenamidone Gad2 / MeanFenamidone Vsnl1 / MeanFenamidone Fam178a: DESeq mean of counts over RefSeq exons
Settings: for MeanFenamidone (DESeq mean normalized counts): Fenamidone, vs matched vehicle
Method: Figure 4 Cluster 2 chemicals alter expression of a common set of genes. […] RNA-seq was performed in quadruplicate after treating cortical cultures with fenamidone (10 μM) or pyraclostrobin (0.1 μM) for 24 h (n=3 biological replicates) and compared with matched vehicle controls using DESeq to detect differentially expressed genes, listed in Supplementary Data 4.
Cultures were treated with the non-cytotoxic dose of each chemical, by exchanging half of the original medium with chemicals at 2 × concentration in prewarmed feeding medium, on DIV 7 for 24 h in 12-well plates at a density of 5 × 10^5 cells per well. RNA was isolated using RNeasy plus mini kit (Cat. #74134, Qiagen). […]. Samples were further assessed for quality using either an Agilent Bioanalyzer 2100 or TapeStation 2200 to obtain a RIN. RIN values exceeding 7 were used for sequencing. RNA samples were used to generate and barcode complementary DNA libraries using the TruSeq RNA Library Preparation Kit at the UNC High Throughput Sequencing Facility. Pools of 24 multiplexed samples were sequenced per lane on an Illumina HiSeq 2500 using 50-bp paired-end reads.
RNA-seq reads were filtered using TagDust and aligned to the reference mouse genome (mm9) with TopHat using default parameters. Reads aligning to ribosomal RNA genes were removed. Transcript abundance was estimated by computing Reads per kilobase per million mapped reads (RPKM) using RefSeq gene models aggregated by gene symbol. For differential expression analyses, raw counts over RefSeq exons were used, and then were compared across samples using DESeq[62].

Structure (SMILES): CSC1=N[C@@](C)(c2ccccc2)C(=O)N1Nc1ccccc1 [fenamidone]
- log2FoldChange (gene Prss23): 2.578
- MeanFenamidone Ptpn14 (gene Ptpn14, DESeq mean, 4 reps): 536.253
- log2FoldChange Ptpn14 (gene Ptpn14, vs vehicle, 4 reps): 2.06
- MeanFenamidone (gene Ptpro): 128.9
- log2FoldChange (gene Ptpro): -1.349
- MeanFenamidone (gene Rab6b): 1528.43
- log2FoldChange (gene Rab6b): -1.231
- MeanFenamidone Rian (gene Rian, DESeq mean, 4 reps): 479.419
- log2FoldChange Rian (gene Rian, vs vehicle, 4 reps): -1.772
- MeanFenamidone Rimkla (gene Rimkla, DESeq mean, 4 reps): 54.5497
- log2FoldChange Rimkla (gene Rimkla, vs vehicle, 4 reps): -1.586
- MeanFenamidone Rph3a (gene Rph3a, DESeq mean, 4 reps): 62.2069
- log2FoldChange Rph3a (gene Rph3a, vs vehicle, 4 reps): -2.0001
- MeanFenamidone (gene Rsu1): 240.928
- log2FoldChange (gene Rsu1): 1.174
- MeanFenamidone Samd4 (gene Samd4, DESeq mean, 4 reps): 336.652
- log2FoldChange Samd4 (gene Samd4, vs vehicle, 4 reps): 1.621
- MeanFenamidone Scn2a1 (gene Scn2a1, DESeq mean, 4 reps): 402.156
- log2FoldChange Scn2a1 (gene Scn2a1, vs vehicle, 4 reps): -1.491
- MeanFenamidone Sdc1 (gene Sdc1, DESeq mean, 4 reps): 327.963
- log2FoldChange Sdc1 (gene Sdc1, vs vehicle, 4 reps): 1.6746
- MeanFenamidone (gene Sdc3): 1856.44
- log2FoldChange (gene Sdc3): -1.095
- MeanFenamidone Serpine2 (gene Serpine2, DESeq mean, 4 reps): 777.193
- log2FoldChange Serpine2 (gene Serpine2, vs vehicle, 4 reps): 1.421
- MeanFenamidone (DESeq mean normalized counts) (gene Serpinf1, 4 reps): 51.7434
- MeanFenamidone Serpini1 (gene Serpini1, DESeq mean, 4 reps): 255.176
- log2FoldChange Serpini1 (gene Serpini1, vs vehicle, 4 reps): -1.567
- MeanFenamidone (gene Sgpl1): 504.223
- log2FoldChange (gene Sgpl1): 1.381
- MeanFenamidone Shank1 (gene Shank1, DESeq mean, 4 reps): 288.972
- log2FoldChange Shank1 (gene Shank1, vs vehicle, 4 reps): -1.584
- MeanFenamidone (gene Shmt2): 164.927
- log2FoldChange (gene Shmt2): 1.37
- MeanFenamidone Slc3a2 (gene Slc3a2, DESeq mean, 4 reps): 1206
- log2FoldChange Slc3a2 (gene Slc3a2, vs vehicle, 4 reps): 1.496
- MeanFenamidone (gene Slc4a2): 227.842
- log2FoldChange (gene Slc4a2): 1.898
- MeanFenamidone Slc5a3 (gene Slc5a3, DESeq mean, 4 reps): 905.314
- log2FoldChange Slc5a3 (gene Slc5a3, vs vehicle, 4 reps): 1.342
- MeanFenamidone Slc8a3 (gene Slc8a3, DESeq mean, 4 reps): 22.3077
- log2FoldChange Slc8a3 (gene Slc8a3, vs vehicle, 4 reps): -2.167
- MeanFenamidone Slc12a4 (gene Slc12a4, DESeq mean, 4 reps): 353.466
- log2FoldChange Slc12a4 (gene Slc12a4, vs vehicle, 4 reps): 2.575
- MeanFenamidone Slc12a5 (gene Slc12a5, DESeq mean, 4 reps): 198.315
- log2FoldChange Slc12a5 (gene Slc12a5, vs vehicle, 4 reps): -1.614
- MeanFenamidone (gene Slc12a7): 123.511
- log2FoldChange (gene Slc12a7): 2.012
- MeanFenamidone Slc32a1 (gene Slc32a1, DESeq mean, 4 reps): 76.5704
- log2FoldChange Slc32a1 (gene Slc32a1, vs vehicle, 4 reps): -1.6789
- MeanFenamidone (gene Slit2): 473.475
- log2FoldChange (gene Slit2): 1.336
- MeanFenamidone (gene Slitrk3): 59.0221
- log2FoldChange (gene Slitrk3): -1.399
- MeanFenamidone Smpd3 (gene Smpd3, DESeq mean, 4 reps): 450.951
- log2FoldChange Smpd3 (gene Smpd3, vs vehicle, 4 reps): -1.523
- MeanFenamidone (gene Snap91): 577.837
- log2FoldChange (gene Snap91): -1.2276
- MeanFenamidone Snx33 (gene Snx33, DESeq mean, 4 reps): 193.085
- log2FoldChange Snx33 (gene Snx33, vs vehicle, 4 reps): 2.21
- MeanFenamidone (gene Sorl1): 374.526
- log2FoldChange (gene Sorl1): 1.703
- MeanFenamidone Spock3 (gene Spock3, DESeq mean, 4 reps): 49.3806
- log2FoldChange Spock3 (gene Spock3, vs vehicle, 4 reps): -2.6448
- MeanFenamidone Sprn (gene Sprn, DESeq mean, 4 reps): 108.373
- log2FoldChange Sprn (gene Sprn, vs vehicle, 4 reps): -1.675
- MeanFenamidone Srxn1 (gene Srxn1, DESeq mean, 4 reps): 1016.41
- log2FoldChange Srxn1 (gene Srxn1, vs vehicle, 4 reps): 2.241
- MeanFenamidone (gene Ssc5d): 60.5262
- log2FoldChange (gene Ssc5d): 1.812
- MeanFenamidone Ssfa2 (gene Ssfa2, DESeq mean, 4 reps): 339.098
- log2FoldChange Ssfa2 (gene Ssfa2, vs vehicle, 4 reps): 1.684
- MeanFenamidone (gene St8sia1): 138.691
- log2FoldChange (gene St8sia1): -1.185
- MeanFenamidone St8sia3 (gene St8sia3, DESeq mean, 4 reps): 218.799
- log2FoldChange St8sia3 (gene St8sia3, vs vehicle, 4 reps): -1.589
- MeanFenamidone (gene St8sia4): 83.2874
- log2FoldChange (gene St8sia4): -1.239
- MeanFenamidone (gene Sult4a1): 337.631
- log2FoldChange (gene Sult4a1): -1.1579
- MeanFenamidone Sv2b (gene Sv2b, DESeq mean, 4 reps): 206.444
- log2FoldChange Sv2b (gene Sv2b, vs vehicle, 4 reps): -1.8053
- MeanFenamidone (DESeq mean normalized counts) (gene Svil, 4 reps): 63.1892
- MeanFenamidone Syn2 (gene Syn2, DESeq mean, 4 reps): 290.905
- log2FoldChange Syn2 (gene Syn2, vs vehicle, 4 reps): -1.354
- MeanFenamidone Syp (gene Syp, DESeq mean, 4 reps): 891.603
- log2FoldChange Syp (gene Syp, vs vehicle, 4 reps): -1.4647
- MeanFenamidone Syt1 (gene Syt1, DESeq mean, 4 reps): 825.321
- log2FoldChange Syt1 (gene Syt1, vs vehicle, 4 reps): -1.819
- MeanFenamidone Tagln (gene Tagln, DESeq mean, 4 reps): 2032.34
- log2FoldChange Tagln (gene Tagln, vs vehicle, 4 reps): 3.012
- MeanFenamidone Tead1 (gene Tead1, DESeq mean, 4 reps): 925.254
- log2FoldChange Tead1 (gene Tead1, vs vehicle, 4 reps): 2.035
- MeanFenamidone Tgfb2 (gene Tgfb2, DESeq mean, 4 reps): 420.529
- log2FoldChange Tgfb2 (gene Tgfb2, vs vehicle, 4 reps): 1.82
- MeanFenamidone Tgfb3 (gene Tgfb3, DESeq mean, 4 reps): 398.538
- log2FoldChange Tgfb3 (gene Tgfb3, vs vehicle, 4 reps): 2.304
- MeanFenamidone Thbs1 (gene Thbs1, DESeq mean, 4 reps): 3138.32
- log2FoldChange Thbs1 (gene Thbs1, vs vehicle, 4 reps): 2.61
- MeanFenamidone Tln1 (gene Tln1, DESeq mean, 4 reps): 658.354
- log2FoldChange Tln1 (gene Tln1, vs vehicle, 4 reps): 2.579
- MeanFenamidone Tmbim1 (gene Tmbim1, DESeq mean, 4 reps): 170.347
- log2FoldChange Tmbim1 (gene Tmbim1, vs vehicle, 4 reps): 2.378
- MeanFenamidone (gene Tmem181b-ps): 77.9777
- log2FoldChange (gene Tmem181b-ps): -1.325
- MeanFenamidone (gene Tmem229b): 256.203
- log2FoldChange (gene Tmem229b): -1.123
- MeanFenamidone Tnc (gene Tnc, DESeq mean, 4 reps): 998.798
- log2FoldChange Tnc (gene Tnc, vs vehicle, 4 reps): 2.934
- MeanFenamidone Tnfrsf10b (gene Tnfrsf10b, DESeq mean, 4 reps): 126.269
- log2FoldChange Tnfrsf10b (gene Tnfrsf10b, vs vehicle, 4 reps): 2.1709
- MeanFenamidone Tnfrsf12a (gene Tnfrsf12a, DESeq mean, 4 reps): 307.752
- log2FoldChange Tnfrsf12a (gene Tnfrsf12a, vs vehicle, 4 reps): 3.087
- MeanFenamidone (gene Tns1): 238.258
- log2FoldChange (gene Tns1): 2.58
- MeanFenamidone Tpm4 (gene Tpm4, DESeq mean, 4 reps): 930.727
- log2FoldChange Tpm4 (gene Tpm4, vs vehicle, 4 reps): 1.809
- MeanFenamidone Tpp1 (gene Tpp1, DESeq mean, 4 reps): 440.575
- log2FoldChange Tpp1 (gene Tpp1, vs vehicle, 4 reps): 1.842
- MeanFenamidone (gene Tro): 343.733
- log2FoldChange (gene Tro): -1.218
- MeanFenamidone (gene Tspyl4): 870.895
- log2FoldChange (gene Tspyl4): -1.118
- MeanFenamidone Tuba4a (gene Tuba4a, DESeq mean, 4 reps): 131.218
- log2FoldChange Tuba4a (gene Tuba4a, vs vehicle, 4 reps): -1.604
- MeanFenamidone Tubb6 (gene Tubb6, DESeq mean, 4 reps): 522.566
- log2FoldChange Tubb6 (gene Tubb6, vs vehicle, 4 reps): 2.127
- MeanFenamidone Tuft1 (gene Tuft1, DESeq mean, 4 reps): 71.0226
- log2FoldChange Tuft1 (gene Tuft1, vs vehicle, 4 reps): 2.58
- MeanFenamidone Txnrd1 (gene Txnrd1, DESeq mean, 4 reps): 1365.85
- log2FoldChange Txnrd1 (gene Txnrd1, vs vehicle, 4 reps): 1.713
- MeanFenamidone Uap1l1 (gene Uap1l1, DESeq mean, 4 reps): 115.372
- log2FoldChange Uap1l1 (gene Uap1l1, vs vehicle, 4 reps): 2.463
- MeanFenamidone (gene Vash1): 501.714
- log2FoldChange (gene Vash1): -1.142
- MeanFenamidone Vasn (gene Vasn, DESeq mean, 4 reps): 270.313
- log2FoldChange Vasn (gene Vasn, vs vehicle, 4 reps): 2.194
- MeanFenamidone Vcl (gene Vcl, DESeq mean, 4 reps): 498.388
- log2FoldChange Vcl (gene Vcl, vs vehicle, 4 reps): 2.095
- MeanFenamidone Vgll3 (gene Vgll3, DESeq mean, 4 reps): 231.289
- log2FoldChange Vgll3 (gene Vgll3, vs vehicle, 4 reps): 2.348
- MeanFenamidone (gene Vim): 6511.9
- log2FoldChange (gene Vim): 1.994
- MeanFenamidone Vsnl1 (gene Vsnl1, DESeq mean, 4 reps): 216.784
- log2FoldChange Vsnl1 (gene Vsnl1, vs vehicle, 4 reps): -1.6854
- MeanFenamidone Wls (gene Wls, DESeq mean, 4 reps): 676.758
- log2FoldChange Wls (gene Wls, vs vehicle, 4 reps): 1.397
- MeanFenamidone Wnk1 (gene Wnk1, DESeq mean, 4 reps): 1955.12
- log2FoldChange Wnk1 (gene Wnk1, vs vehicle, 4 reps): 1.378
- MeanFenamidone Xkr4 (gene Xkr4, DESeq mean, 4 reps): 97.5483
- log2FoldChange Xkr4 (gene Xkr4, vs vehicle, 4 reps): -1.595
- MeanFenamidone (gene Zak): 216.098
- log2FoldChange (gene Zak): 1.697
- MeanFenamidone (gene Zbtb7b): 137.122
- log2FoldChange (gene Zbtb7b): 2.108
- MeanFenamidone Zfp36l2 (gene Zfp36l2, DESeq mean, 4 reps): 339.831
- log2FoldChange Zfp36l2 (gene Zfp36l2, vs vehicle, 4 reps): 2.067
